The values below come from ChEMBL document CHEMBL4819112, “Design, synthesis and antitumor activity of phthalazine-1,4-dione-based menaquinone analogs” (Bioorg Med Chem Lett, 2021).

SMILES strings stand for the structures. Active and inactive are the calls of the source. No cut-off for these calls is given here.

Series [1] deals with JHH7. As to the kind of experiment: (§1) Growth inhibition of human JHH7 cells measured after 24 hrs. It is filed as functional, cell-based.
A short description of series [2]: as §1. Format: functional, cell-based. Conditions: JHH7, 24 h.
Series [3] deals with Hepatocyte. As to the kind of experiment: Growth inhibition of human hepatocytes cells upto 10 uM measured after 24 hrs. It is filed as cell-based.
In series [4] the test system is FLC-4. The experiment in a line: Growth inhibition of human FLC-4 cells measured after 24 hrs. Format: functional, cell-based.

Turning to `CC(C)=CCC/C(C)=C/CC/C(C)=C/Cn1c(=O)c2ccccc2c(=O)n1C`, the outcome in series [1] was Active.
The same measure, in the same setting: then `C/C(=C\CC/C(C)=C/Cn1c(=O)c2ccccc2c(=O)n1C)CC/C=C(\C)CC/C=C(\C)C(=O)O`, with “Active”.
For the molecule `CC(C)=CCC/C(C)=C/CC/C(C)=C/CC/C(C)=C/Cn1c(=O)c2ccccc2c(=O)n1C`, the result in series [1] was Active.
As a reminder, the IC50 is the concentration that gives 50% inhibition. Low values mean greater potency in that assay, high ones weaker potency in that assay. `CC(C)=CCC/C(C)=C/Cn1c(=O)c2ccccc2c(=O)n1C`: the IC50 in series [2] turned out to be 340 nM. Besides, the Activity result in series [3] is “Non-Toxic”. The outcome in series [4] was Active.
Turning to `CC(C)=CCn1c(=O)c2ccccc2c(=O)n1C`, the result in series [1] was Active. Moreover, the Activity entry in series [3] is “Non-Toxic”.
